In patent US20100215777A1, “Malononitrile Compounds” (BASF SE, priority 2006, published 2010) one finds melting point data, which are given here for one compound.

By melting point is commonly meant the temperature of the solid-liquid transition.

SMILES strings stand for the structures.

With `N#CC(C#N)(CCCSC(F)(F)F)CC(F)(F)C(F)(F)C(F)(F)C(F)(F)C(F)(F)F`, the melting point was in the range of 88 to 90 °C.
